Measured values: patent US4698327A, “Novel glycopeptide derivatives” (priority 1986, dated 1987)
≈ marks a conversion by molar mass, not a printed value.

What was measured:
[1] = tested on: Staphylococcus epidermidis 222; experiment: MIC, standard agar-dilution assay; format: cell-based
[2] = tested on: Staphylococcus aureus V41; experiment: MIC, standard agar-dilution assay; format: cell-based
[3] = tested on: Staphylococcus aureus X400; experiment: MIC, standard agar-dilution assay; format: cell-based
[4] = tested on: Staphylococcus epidermidis EPI1; format: cell-based; details: agar dilution
[5] = tested on: Staphylococcus aureus NRRL B313; details: agar dilution
[6] = tested on: Escherichia coli EC14; experiment: MIC, standard agar-dilution assay; format: cell-based
[7] = tested on: Staphylococcus aureus S13E; format: cell-based; details: agar dilution
[8] = tested on: Escherichia coli TEM; experiment: MIC, standard agar-dilution assay; format: cell-based
[9] = tested on: Escherichia coli N10; experiment: MIC, standard agar-dilution assay; format: cell-based
[10] = tested on: Streptococcus sp. group D 2041; experiment: MIC, standard agar-dilution assay; format: cell-based
[11] = tested on: Klebsiella pneumoniae X26; experiment: MIC, standard agar-dilution assay; format: cell-based
[12] = tested on: Streptococcus pyogenes C203; experiment: MIC, standard agar-dilution assay; format: cell-based
[13] = tested on: Haemophilus influenzae 76; experiment: MIC, standard agar-dilution assay; format: cell-based
[14] = tested on: Klebsiella pneumoniae X68; experiment: MIC, standard agar-dilution assay; format: cell-based
[15] = tested on: Streptococcus faecium ATCC 9790; experiment: MIC, standard agar-dilution assay; format: cell-based
[16] = tested on: Klebsiella pneumoniae KAE; experiment: MIC, standard agar-dilution assay; format: cell-based
[17] = tested on: Streptococcus pneumoniae Park 1; format: cell-based; details: agar dilution
[18] = tested on: Haemophilus influenzae C.L.; experiment: MIC, standard agar-dilution assay; format: cell-based

| Compound | MIC [1] | MIC [2] | MIC [3] | MIC [4] | MIC [5] | MIC [6] | MIC [7] | MIC [8] | MIC [9] | MIC [10] | MIC [11] | MIC [12] | MIC [13] | MIC [14] | MIC [15] | MIC [16] | MIC [17] | MIC [18] |
| --- | --- | --- | --- | --- | --- | --- | --- | --- | --- | --- | --- | --- | --- | --- | --- | --- | --- | --- |
| CCCCCCCCCCNC1(C)CC(OC2C(Oc3c4cc5cc3Oc3ccc(cc3Cl)C(O)C(NC(=O)C(CC(C)C)N(C)CCCCCCCCCC)C(=O)NC(CC(N)=O)C(=O)NC5C(=O)NC3C(=O)NC(C(=O)NC(C(=O)O)c5cc(O)cc(O)c5-c5cc3ccc5O)C(O)c3ccc(c(Cl)c3)O4)OC(CO)C(O)C2O)OC(C)C1O (stereo not drawn) [Compound 4, N^van, N^leu --di(n-decyl)vancomycin] | 4 µg/mL (≈ 2.31 µM) | 4 µg/mL (≈ 2.31 µM) | 4 µg/mL (≈ 2.31 µM) | 16 µg/mL (≈ 9.25 µM) | 2 µg/mL (≈ 1.16 µM) | > 128 µg/mL | 4 µg/mL (≈ 2.31 µM) | > 128 µg/mL | > 128 µg/mL | 4 µg/mL (≈ 2.31 µM) | > 128 µg/mL | 2 µg/mL (≈ 1.16 µM) | > 128 µg/mL | > 128 µg/mL | 4 µg/mL (≈ 2.31 µM) | > 128 µg/mL | 4 µg/mL (≈ 2.31 µM) | > 128 µg/mL |
| CCCCCCCCCNC1(C)CC(OC2C(Oc3c4cc5cc3Oc3ccc(cc3Cl)C(O)C(NC(=O)C(CC(C)C)N(C)CCCCCCCCC)C(=O)NC(CC(N)=O)C(=O)NC5C(=O)NC3C(=O)NC(C(=O)NC(C(=O)O)c5cc(O)cc(O)c5-c5cc3ccc5O)C(O)c3ccc(c(Cl)c3)O4)OC(CO)C(O)C2O)OC(C)C1O (stereo not drawn) [Compound 6, N^van, N^leu --di(n-nonyl)vancomycin] | 2 µg/mL (≈ 1.18 µM) | 1 µg/mL (≈ 0.588 µM) | 1 µg/mL (≈ 0.588 µM) | 4 µg/mL (≈ 2.35 µM) | 1 µg/mL (≈ 0.588 µM) | > 128 µg/mL | 2 µg/mL (≈ 1.18 µM) | > 128 µg/mL | > 128 µg/mL | 2 µg/mL (≈ 1.18 µM) | > 128 µg/mL | 1 µg/mL (≈ 0.588 µM) | > 128 µg/mL | > 128 µg/mL | 1 µg/mL (≈ 0.588 µM) | > 128 µg/mL | 2 µg/mL (≈ 1.18 µM) | > 128 µg/mL |
| CCCCCCCCNC1(C)CC(OC2C(Oc3c4cc5cc3Oc3ccc(cc3Cl)C(O)C(NC(=O)C(CC(C)C)N(C)CCCCCCCC)C(=O)NC(CC(N)=O)C(=O)NC5C(=O)NC3C(=O)NC(C(=O)NC(C(=O)O)c5cc(O)cc(O)c5-c5cc3ccc5O)C(O)c3ccc(c(Cl)c3)O4)OC(CO)C(O)C2O)OC(C)C1O (stereo not drawn) [Compound 9, N^van, N^leu --di(n-octyl)vancomycin] | 2 µg/mL (≈ 1.19 µM) | 1 µg/mL (≈ 0.597 µM) | 1 µg/mL (≈ 0.597 µM) | 4 µg/mL (≈ 2.39 µM) | 1 µg/mL (≈ 0.597 µM) | > 128 µg/mL | 1 µg/mL (≈ 0.597 µM) | > 128 µg/mL | > 128 µg/mL | 2 µg/mL (≈ 1.19 µM) | > 128 µg/mL | 0.5 µg/mL (≈ 0.299 µM) | > 128 µg/mL | > 128 µg/mL | 1 µg/mL (≈ 0.597 µM) | > 128 µg/mL | 1 µg/mL (≈ 0.597 µM) | > 128 µg/mL |
| CCCCCCCNC1(C)CC(OC2C(Oc3c4cc5cc3Oc3ccc(cc3Cl)C(O)C3NC(=O)C(NC(=O)C5NC(=O)C(CC(N)=O)NC(=O)C(NC(=O)C(CC(C)C)NC)C(O)c5ccc(c(Cl)c5)O4)c4ccc(O)c(c4)-c4c(O)cc(O)cc4C(C(=O)O)NC3=O)OC(CO)C(O)C2O)OC(C)C1O (stereo not drawn) [Compound 10, N^van --(n-heptyl)vancomycin] | 1 µg/mL (≈ 0.646 µM) | 0.5 µg/mL (≈ 0.323 µM) | 0.5 µg/mL (≈ 0.323 µM) | 2 µg/mL (≈ 1.29 µM) | 0.25 µg/mL (≈ 0.162 µM) | > 128 µg/mL | 0.5 µg/mL (≈ 0.323 µM) | > 128 µg/mL | > 128 µg/mL | 1 µg/mL (≈ 0.646 µM) | > 128 µg/mL | 0.5 µg/mL (≈ 0.323 µM) | 128 µg/mL (≈ 82.7 µM) | > 128 µg/mL | 0.5 µg/mL (≈ 0.323 µM) | > 128 µg/mL | 0.125 µg/mL (≈ 0.0808 µM) | 128 µg/mL (≈ 82.7 µM) |
| CCCCCCCNC1(C)CC(OC2C(Oc3c4cc5cc3Oc3ccc(cc3Cl)C(O)C(NC(=O)C(CC(C)C)N(C)CCCCCCC)C(=O)NC(CC(N)=O)C(=O)NC5C(=O)NC3C(=O)NC(C(=O)NC(C(=O)O)c5cc(O)cc(O)c5-c5cc3ccc5O)C(O)c3ccc(c(Cl)c3)O4)OC(CO)C(O)C2O)OC(C)C1O (stereo not drawn) [Compound 12, N^van, N^leu --di(n-heptyl)vancomycin] | 1 µg/mL (≈ 0.608 µM) | 1 µg/mL (≈ 0.608 µM) | 1 µg/mL (≈ 0.608 µM) | 2 µg/mL (≈ 1.22 µM) | 0.5 µg/mL (≈ 0.304 µM) | > 128 µg/mL | 1 µg/mL (≈ 0.608 µM) | > 128 µg/mL | > 128 µg/mL | 1 µg/mL (≈ 0.608 µM) | > 128 µg/mL | 0.5 µg/mL (≈ 0.304 µM) | 128 µg/mL (≈ 77.8 µM) | > 128 µg/mL | 1 µg/mL (≈ 0.608 µM) | > 128 µg/mL | 0.5 µg/mL (≈ 0.304 µM) | > 128 µg/mL |
| CCCCCCNC1(C)CC(OC2C(Oc3c4cc5cc3Oc3ccc(cc3Cl)C(O)C3NC(=O)C(NC(=O)C5NC(=O)C(CC(N)=O)NC(=O)C(NC(=O)C(CC(C)C)NC)C(O)c5ccc(c(Cl)c5)O4)c4ccc(O)c(c4)-c4c(O)cc(O)cc4C(C(=O)O)NC3=O)OC(CO)C(O)C2O)OC(C)C1O (stereo not drawn) [Compound 13, N^van --(n-hexyl)vancomycin] | 1 µg/mL (≈ 0.652 µM) | 1 µg/mL (≈ 0.652 µM) | 1 µg/mL (≈ 0.652 µM) | 2 µg/mL (≈ 1.3 µM) | 0.5 µg/mL (≈ 0.326 µM) | > 128 µg/mL | 0.5 µg/mL (≈ 0.326 µM) | > 128 µg/mL | > 128 µg/mL | 1 µg/mL (≈ 0.652 µM) | > 128 µg/mL | 0.5 µg/mL (≈ 0.326 µM) | 128 µg/mL (≈ 83.5 µM) | > 128 µg/mL | 1 µg/mL (≈ 0.652 µM) | > 128 µg/mL | 0.125 µg/mL (≈ 0.0815 µM) | 128 µg/mL (≈ 83.5 µM) |
| CCCCCNC1(C)CC(OC2C(Oc3c4cc5cc3Oc3ccc(cc3Cl)C(O)C3NC(=O)C(NC(=O)C5NC(=O)C(CC(N)=O)NC(=O)C(NC(=O)C(CC(C)C)NC)C(O)c5ccc(c(Cl)c5)O4)c4ccc(O)c(c4)-c4c(O)cc(O)cc4C(C(=O)O)NC3=O)OC(CO)C(O)C2O)OC(C)C1O (stereo not drawn) [Compound 15, N^van --(n-pentyl)vancomycin] | 1 µg/mL (≈ 0.658 µM) | 1 µg/mL (≈ 0.658 µM) | 1 µg/mL (≈ 0.658 µM) | 2 µg/mL (≈ 1.32 µM) | 0.5 µg/mL (≈ 0.329 µM) | > 128 µg/mL | 1 µg/mL (≈ 0.658 µM) | > 128 µg/mL | > 128 µg/mL | 2 µg/mL (≈ 1.32 µM) | > 128 µg/mL | 0.5 µg/mL (≈ 0.329 µM) | 128 µg/mL (≈ 84.2 µM) | > 128 µg/mL | 1 µg/mL (≈ 0.658 µM) | > 128 µg/mL | 0.125 µg/mL (≈ 0.0823 µM) | 128 µg/mL (≈ 84.2 µM) |
| CCCCNC1(C)CC(OC2C(Oc3c4cc5cc3Oc3ccc(cc3Cl)C(O)C3NC(=O)C(NC(=O)C5NC(=O)C(CC(N)=O)NC(=O)C(NC(=O)C(CC(C)C)NC)C(O)c5ccc(c(Cl)c5)O4)c4ccc(O)c(c4)-c4c(O)cc(O)cc4C(C(=O)O)NC3=O)OC(CO)C(O)C2O)OC(C)C1O (stereo not drawn) [Compound 17, N^van --(n-butyl)vancomycin] | 2 µg/mL (≈ 1.33 µM) | 1 µg/mL (≈ 0.664 µM) | 1 µg/mL (≈ 0.664 µM) | 4 µg/mL (≈ 2.66 µM) | 1 µg/mL (≈ 0.664 µM) | > 128 µg/mL | 1 µg/mL (≈ 0.664 µM) | > 128 µg/mL | > 128 µg/mL | 4 µg/mL (≈ 2.66 µM) | > 128 µg/mL | 1 µg/mL (≈ 0.664 µM) | 128 µg/mL (≈ 85 µM) | > 128 µg/mL | 2 µg/mL (≈ 1.33 µM) | > 128 µg/mL | 0.5 µg/mL (≈ 0.332 µM) | 128 µg/mL (≈ 85 µM) |
| CCCCNC1(C)CC(OC2C(Oc3c4cc5cc3Oc3ccc(cc3Cl)C(O)C(NC(=O)C(CC(C)C)N(C)CCCC)C(=O)NC(CC(N)=O)C(=O)NC5C(=O)NC3C(=O)NC(C(=O)NC(C(=O)O)c5cc(O)cc(O)c5-c5cc3ccc5O)C(O)c3ccc(c(Cl)c3)O4)OC(CO)C(O)C2O)OC(C)C1O (stereo not drawn) [Compound 19, N^van, N^leu --di(n-butyl)vancomycin] | 1 µg/mL (≈ 0.64 µM) | 1 µg/mL (≈ 0.64 µM) | 1 µg/mL (≈ 0.64 µM) | 2 µg/mL (≈ 1.28 µM) | 0.5 µg/mL (≈ 0.32 µM) | > 128 µg/mL | 1 µg/mL (≈ 0.64 µM) | > 128 µg/mL | > 128 µg/mL | 2 µg/mL (≈ 1.28 µM) | > 128 µg/mL | 0.5 µg/mL (≈ 0.32 µM) | 128 µg/mL (≈ 82 µM) | > 128 µg/mL | 1 µg/mL (≈ 0.64 µM) | > 128 µg/mL | 0.5 µg/mL (≈ 0.32 µM) | > 128 µg/mL |
